Like-named read-outs stand apart in the source and are kept apart here.
Legend:
[1] = molecular target: PI3 K Alpha (Homo sapiens, UniProt P42336); test: PI3 kinase phosphorylation assays (homogenous solution phase, one step solid phase, ATP depletion/KinaseGlo); format: biochemical
[2] = tested on: pSer473-Akt in A2780 cells; test: pSer473 Akt assay to monitor PI3K pathway in A2780 cells (MSD); format: cell-based; details: Homo sapiens
Method in brief: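 A2780 cells (15,000/well, adhered overnight) treated 1 h at 37 °C with compound, then lysed; pSer473-Akt and total Akt measured by MSD electrochemiluminescence. The pSer473/total Akt ratio gave percent inhibition versus DMSO, from which EC50 was derived.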

[3] = tested on: A2780 cells; test: Viability assay in A2780 (Cell Titer Glo); format: cell-based, human; details: Homo sapiens
Method in brief: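 A2780 cells (1,000/well, DMEM + 10% FBS) were exposed to 3-fold serial dilutions of compound for 72 hrs at 37° C, 5% CO2. Viable cells were read by Cell Titer Glo luminescence, in duplicate, and EC50 values were derived from the curves.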

[4] = A2780 cells, read-out: A2780 pAKT 473 EC50
[5] = A2780 cells, read-out: A2780 Cell prolif. EC50

PI3 K Alpha, sequence (P42336 whole entry): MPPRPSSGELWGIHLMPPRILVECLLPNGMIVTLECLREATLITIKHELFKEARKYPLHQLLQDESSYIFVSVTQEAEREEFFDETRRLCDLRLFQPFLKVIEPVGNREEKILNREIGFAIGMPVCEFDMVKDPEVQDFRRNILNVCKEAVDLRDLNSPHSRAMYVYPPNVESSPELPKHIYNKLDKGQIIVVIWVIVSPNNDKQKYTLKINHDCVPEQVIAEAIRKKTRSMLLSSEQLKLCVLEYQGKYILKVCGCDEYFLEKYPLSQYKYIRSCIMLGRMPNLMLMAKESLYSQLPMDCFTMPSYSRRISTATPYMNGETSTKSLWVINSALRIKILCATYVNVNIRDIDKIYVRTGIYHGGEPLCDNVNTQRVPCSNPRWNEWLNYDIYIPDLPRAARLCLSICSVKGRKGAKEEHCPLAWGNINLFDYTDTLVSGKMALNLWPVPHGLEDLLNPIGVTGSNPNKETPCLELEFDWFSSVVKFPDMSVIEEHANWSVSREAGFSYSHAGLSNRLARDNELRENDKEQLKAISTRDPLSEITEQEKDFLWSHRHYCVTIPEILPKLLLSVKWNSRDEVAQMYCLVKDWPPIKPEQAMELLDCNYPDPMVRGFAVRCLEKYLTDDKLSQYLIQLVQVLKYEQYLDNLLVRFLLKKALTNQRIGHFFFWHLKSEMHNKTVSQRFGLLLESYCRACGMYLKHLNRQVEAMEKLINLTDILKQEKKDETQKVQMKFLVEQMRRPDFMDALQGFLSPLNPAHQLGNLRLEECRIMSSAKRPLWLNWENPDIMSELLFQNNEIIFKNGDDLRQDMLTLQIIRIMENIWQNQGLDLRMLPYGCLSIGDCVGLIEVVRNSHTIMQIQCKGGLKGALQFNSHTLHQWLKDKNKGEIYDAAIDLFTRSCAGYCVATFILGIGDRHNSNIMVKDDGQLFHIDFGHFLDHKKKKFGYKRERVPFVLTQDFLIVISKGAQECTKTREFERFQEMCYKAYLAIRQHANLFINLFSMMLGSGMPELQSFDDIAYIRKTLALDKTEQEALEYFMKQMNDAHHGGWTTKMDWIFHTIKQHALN
PI3 K Alpha, sequence (P27986 whole entry partner): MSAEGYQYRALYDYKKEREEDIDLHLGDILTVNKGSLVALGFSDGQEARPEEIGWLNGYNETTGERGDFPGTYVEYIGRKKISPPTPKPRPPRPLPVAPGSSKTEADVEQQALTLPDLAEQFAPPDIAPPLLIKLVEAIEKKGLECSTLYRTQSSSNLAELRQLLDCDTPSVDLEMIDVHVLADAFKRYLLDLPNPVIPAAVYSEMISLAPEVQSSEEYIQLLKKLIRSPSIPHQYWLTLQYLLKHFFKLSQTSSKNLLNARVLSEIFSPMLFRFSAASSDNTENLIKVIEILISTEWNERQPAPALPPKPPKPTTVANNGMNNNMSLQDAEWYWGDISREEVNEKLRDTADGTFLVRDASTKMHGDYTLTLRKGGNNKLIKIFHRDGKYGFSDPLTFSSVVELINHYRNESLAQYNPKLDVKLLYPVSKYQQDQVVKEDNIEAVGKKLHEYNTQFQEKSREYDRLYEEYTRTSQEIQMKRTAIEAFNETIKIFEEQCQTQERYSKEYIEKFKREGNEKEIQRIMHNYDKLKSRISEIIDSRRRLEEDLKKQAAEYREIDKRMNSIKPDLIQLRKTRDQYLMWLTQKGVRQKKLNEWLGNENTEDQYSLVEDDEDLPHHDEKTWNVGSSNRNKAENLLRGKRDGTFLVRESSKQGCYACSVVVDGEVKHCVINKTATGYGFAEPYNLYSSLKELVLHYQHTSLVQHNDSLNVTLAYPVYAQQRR

Compound	IC50 ([1]; read-out: PI3K Alpha IC50) [nM]	EC50 [2, 4] [nM]	EC50 [3, 5] [nM]	IC50 [1] [nM]	EC50 ([2]; A2780, read-out: A2780 pAKT 473 EC50) [nM]	EC50 ([3]; A2780, read-out: A2780 Cell prolif. EC50) [nM]
NCC(=O)Nc1cn2nc(-c3cnc(N)c(C(F)(F)F)c3)ccc2n1 [Example 77, 2-amino-N-(6-(6-amino-5-(trifluoromethyl)pyridin-3-yl)imidazo[1,2-b]pyridazin-2-yl)acetamide]	< 1000	< 1000	< 1000			
Nc1ncc(-c2ccc3nc(NC(=O)c4ccc(F)cc4)cn3c2)cc1C(F)(F)F [Example 78, N-(6-(6-amino-5-(trifluoromethyl)pyridin-3-yl)imidazo[1,2-a]pyridin-2-yl)-4-fluorobenzamide]	< 1000	< 1000	< 1000			
CC(C)(C)OC(=O)NCCCC(=O)Nc1cn2nc(-c3cnc(N)c(C(F)(F)F)c3)ccc2n1 [Example 79, tert-butyl 4-(6-(6-amino-5-(trifluoromethyl)pyridin-3-yl)imidazo[1,2-b]pyridazin-2-ylamino)-4-oxobutylcarbamate]	< 1000	< 10000	< 1000			
CNCC(=O)Nc1cn2cc(-c3cnc(N)c(C(F)(F)F)c3)ccc2n1 [Example 80, N-(6-(6-amino-5-(trifluoromethyl)pyridin-3-yl)imidazo[1,2-a]pyridin-2-yl)-2-(methylamino) acetamide]	< 1000	< 1000	< 1000			
CC(=O)Nc1cn2nc(-c3cnc(N)c(-c4ccccc4F)c3)ccc2n1 [Example 81, N-(6-(6-amino-5-(2-fluorophenyl)pyridin-3-yl)imidazo[1,2-b]pyridazin-2-yl)acetamide]	< 1000	< 1000	< 1000			
Nc1ncc(-c2ccc3nc(NC(=O)CO[C@H]4CCNC4)cn3n2)cc1C(F)(F)F [Example 82, (S)-N-(6-(6-amino-5-(trifluoromethyl)pyridin-3-yl)imidazo[1,2-b]pyridazin-2-yl)-2-(pyrrolidin-3-yloxy)acetamide]	< 1000	< 1000	< 1000			
CC(=O)Nc1nc2ccc(-c3cnc(N)c(C(F)(F)F)c3)cn2c1C#Cc1cccnc1 [Example 83, N-(6-(6-amino-5-(trifluoromethyl)pyridin-3-yl)-3-(pyridin-3-ylethynyl)imi-dazo[1,2-a]pyridin-2-yl)acetamide]				< 1000	< 1000	< 1000
CC(=O)Nc1cn2nc(-c3cnc(N)c(-c4ccccc4)c3)ccc2n1 [Example 84, N-(6-(6-amino-5-phenylpyridin-3-yl)imidazo[1,2-b]pyridazin-2-yl)acetamide]	< 1000	< 1000	< 1000			
CC(C)(C)OC(=O)N1CCN(c2ccc(C(=O)Nc3cn4cc(-c5cnc(N)c(C(F)(F)F)c5)ccc4n3)cn2)CC1 [Example 85, tert-butyl 4-(5-(6-(6-amino-5-(trifluoromethyl)pyridin-3-yl)imidazo[1,2-a]pyridin-2-ylcarbamoyl)pyridin-2-yl)piperazine-1-carboxylate]	< 1000	< 1000	< 1000			
CC(=O)Nc1cn2cc(-c3cnc(N)c(-c4cccc(N5CCOCC5)c4)c3)ccc2n1 [Example 86, N-(6-(6-amino-5-(3-morpholino-phenyl)pyridin-3-yl)imidazo[1,2-a]pyridin-2-yl)acetamide]	< 1000	< 1000	< 1000			
CC(=O)Nc1cn2nc(-c3cnc(N)c(Cl)c3)ccc2n1 [Example 87, N-(6-(6-amino-5-chloropyridin-3-yl)imidazo[1,2-b]pyridazin-2-yl)acetamide]	< 1000	< 1000	< 1000			
CC(=O)Nc1cn2cc(-c3cnc(N)c(-c4cccc(C(F)(F)F)c4)c3)ccc2n1 [Example 88, N-(6-(6-amino-5-(3-(trifluoromethyl)phenyl)pyridin-3-yl)imidazo[1,2-a]pyridin-2-yl)acetamide]	< 1000	< 1000	< 1000			
COCC(=O)Nc1cn2cc(-c3cnc(N)c(OCC(F)(F)F)n3)ccc2n1 [Example 89]	< 1000	< 1000	< 1000			
CC(=O)Nc1cn2nc(-c3cnc(N)c(-c4ccccc4OC(F)(F)F)c3)ccc2n1 [Example 90, N-(6-(6-amino-5-(2-(trifluoromethoxy)phenyl)pyridin-3-yl)imidazo[1,2-b]pyridazin-2-yl)acetamide]	< 1000	< 1000	< 1000			
CC(=O)Nc1cn2cc(-c3cnc(N)c(Oc4cccnc4)n3)ccc2n1 [Example 91, N-(6-(5-amino-6-(pyridin-3-yloxy)pyrazin-2-yl)imidazo[1,2-a]pyridin-2-yl)acetamide]	< 1000	< 1000	< 1000			
CC(=O)Nc1cn2cc(-c3cnc(N)c(-c4cccc(OC(F)(F)F)c4)c3)ccc2n1 [Example 92, N-(6-(6-amino-5-(3-(trifluoromethoxy)phenyl)pyridin-3-yl)imidazo[1,2-a]pyridin-2-yl)acetamide]	< 1000	< 10000	< 1000			
CC(=O)Nc1cn2cc(-c3cnc(N)c(-c4ccc(C(F)(F)F)cc4)c3)ccc2n1 [Example 93, N-(6-(6-amino-5-(4-(trifluoromethyl)phenyl)pyridin-3-yl)imidazo[1,2-a]pyridin-2-yl)acetamide]	< 1000	< 1000	< 1000			
Cc1cc(C(=O)Nc2cn3cc(-c4cnc(N)c(C(F)(F)F)c4)ccc3n2)no1 [Example 94, N-(6-(6-amino-5-(trifluoromethyl)pyridin-3-yl)imidazo[1,2-a]pyridin-2-yl)-5-methylisoxazole-3-carboxamide]	< 1000	< 1000	< 1000			
CC(=O)Nc1cn2nc(-c3cnc(N)c(-c4ccn(C)n4)c3)ccc2n1 [Example 95, N-(6-(6-amino-5-(1-methyl-1H-pyrazol-3-yl)pyridin-3-yl)imidazo[1,2-b]pyridazin-2-yl)acetamide]	< 1000	< 1000	< 1000			
CCC(=O)Nc1cn2nc(-c3cnc(N)c(C(F)(F)F)c3)ccc2n1 [Example 96, N-(6-(6-amino-5-(trifluoromethyl)pyridin-3-yl)imidazo[1,2-b]pyridazin-2-yl)propionamide]	< 1000	< 1000	< 1000			
CC(=O)Nc1cn2cc(-c3cnc(N)c(-c4ccc(OC(F)(F)F)cc4)c3)ccc2n1 [Example 97, N-(6-(6-amino-5-(4-(trifluoromethoxy)phenyl)pyridin-3-yl)imidazo[1,2-a]pyridin-2-yl)acetamide]	< 1000	< 10000	< 1000			
CC(C)(C)OC(=O)N1CC[C@H](OCC(=O)Nc2cn3nc(-c4cnc(N)c(C(F)(F)F)c4)ccc3n2)C1 [Example 98, (S)-tert-butyl 3-(2-(6-(6-amino-5-(trifluoromethyl)pyridin-3-yl)imidazo[1,2-b]pyridazin-2-ylamino)-2-oxoethoxy) pyrrolidine-1-carboxylate]	< 1000	< 1000	< 1000			
COc1ccc(CC(=O)Nc2cn3cc(-c4cnc(N)c(C(F)(F)F)c4)ccc3n2)cc1 [Example 99, N-(6-(6-amino-5-(trifluoromethyl)pyridin-3-yl)imidazo[1,2-a]pyridin-2-yl)-2-(4-methoxyphenyl) acetamide]	< 1000	< 1000	< 1000			
CC(=O)Nc1cn2cc(-c3cnc(N)c(C(=O)NCCN4CCCC4)n3)ccc2n1 [Example 100, 6-(2-acetamido-imidazo[1,2-a]pyridin-6-yl)-3-amino-N-(2-(pyrrolidin-1-yl)ethyl) pyrazine-2-carboxamide]	< 1000	< 1000	< 1000			
CC(C)(C)OC(=O)N1CC[C@@H](OCC(=O)Nc2cn3nc(-c4cnc(N)c(C(F)(F)F)c4)ccc3n2)C1 [Example 102, (R)-tert-butyl 3-(2-(6-(6-amino-5-(trifluoromethyl)pyridin-3-yl)imidazo[1,2-b]pyridazin-2-ylamino)-2-oxoethoxy) pyrrolidine-1-carboxylate]	< 1000	< 1000	< 1000			
CC(=O)Nc1cn2nc(-c3cnc(N)c(C(=O)NCCNC(=O)OC(C)(C)C)c3)ccc2n1 [Example 103, tert-butyl 2-(5-(2-acetamido-imidazo[1,2-b]pyridazin-6-yl)-2-aminonicotin-amido)ethyl-carbamate]	< 1000	< 1000	< 1000			
CCN1CCCCC1CCC(=O)Nc1cn2nc(-c3cnc(N)c(C(F)(F)F)c3)ccc2n1 (stereo not drawn) [Example 104, N-(6-(6-amino-5-(trifluoromethyl)pyridin-3-yl)imidazo[1,2-b]pyridazin-2-yl)-3-(1-ethylpiperidin-2-yl)propanamide]	< 1000	< 1000	< 1000			
CC(=O)Nc1cn2cc(-c3cnc(N)c(-c4ccccc4N4CCOCC4)c3)ccc2n1 [Example 105, N-(6-(6-amino-5-(2-morpholino-phenyl)pyridin-3-yl)imidazo[1,2-a]pyridin-2-yl)acetamide]	< 1000	< 1000	< 1000			
CC(=O)Nc1cn2nc(-c3cnc(N)c(-c4ccc(C(F)(F)F)cc4)c3)ccc2n1 [Example 107, N-(6-(6-amino-5-(4-(trifluoromethyl)phenyl)pyridin-3-yl)imidazo[1,2-b]pyridazin-2-yl)acetamide]	< 1000	< 1000	< 1000			

— patent US20100075965A1, “PI3 KINASE INHIBITORS AND METHODS OF THEIR USE” (Novartis AG, priority 2006, published 2010)
